US5175172A, “Method of alleviating AIDS symptoms and compositions therefor” (priority 1988, dated 1992)
Several values for one entry are separate records, joined by “and”; a condition that tells them apart may be missing. Equal entries are not always repeated. Where two headings read alike, the source gives them in different places.

Experiments:
[1] = Hepatotoxicity on administration of Tacrine (prior reports and applicants' studies); assay type: in vivo; details: more recent studies by Applicants
HIV [2] = details: for Antigenemia, evolution (%) in comparison with D0: D0 value 462 pg/ml
Experimental: (§1) Seven Month Follow-Up Study of Tacrine Administration to 26 HIV Infected Patients
(§2) Tacrine was supplied as capsules containing 63.5 mg. Tacrine hydrochloride,monohydrate corresponding to 50 mg. base. An inert excipient (lactose) was added to fill white hard size 3 gelatin capsules.
(§3) For the first 15 days, patients received 2 capsules a day (i.e., 1 capsule at 8 A.M. and 1 at 8 P.M.). After the first 15 days, if nausea had not occurred or had ceased, the dosage was augmented by 1 capsule (i.e., 1 capsule at 8 A.M., 1 at lunch time and 1 at 8 P.M.). After this second period of 15 days, if nausea had not occurred or had ceased, the dosage was augmented by a further 1 capsule, to reach 4 capsules a day (i.e., 1 capsule at 8 A.M., 1 at lunch time, 1 at 4 P.M. and 1 at 8 P.M.).
(§4) D0 --Inclusion Examination--Serological, hematological and clinical determinations. Patients are supplied with capsules of Tacrine for 15 days.
(§5) D15 --First Control after 15 Days Treatment--Serological, hematological and clinical determinations. Patients are supplied with capsules of Tacrine for 15 days.
(§6) D1mth --Second control after 1 month of Treatment--Serological, hematological and clinical determinations. Patients are supplied with capsules of Tacrine for 1 month.
(§7) D'n'mth --Same as D1mth. Following examinations of one month interval each.

T4 Lymphocytes = details: D0 value 203/mm^3
Experimental: as §1, §2, §3, §4, §5, §6, §7

T4 = test system: T4
Experimental: Seven Month Follow-Up of Tacrine (THA) vs Zidovudine (AZT) in 72 HIV Infected Patients
Comparison of serological and clinical status of HIV infected patients after THA versus AZT treatment in an open study.
[…] (61 males, 11 females) with HIV infection ([…], 10 stages II and III), received either AZT (46 patients 600-1200 mg./day) or THA (26 patients 150-250 mg/day). In cases of intolerance or inefficacy, treatment was discontinued and patients were treated by the other drug.

[3] = Seven month follow-up of THA vs AZT in HIV infected patients (open study): withdrawals for toxicity; assay type: in vivo, human; details: AZT n = 52; THA n = 51
Experimental: (§8) 70 patients (61 males, 11 females) with HIV infection (69 stage IV, 10 stages II and III), received either AZT (46 patients 600-1200 mg./day) or THA (26 patients 150-250 mg/day).
(§9) 13 patients were treated by THA alone, 20 by AZT alone, 26 by AZT then THA and 13 by THA then AZT. Mean duration of treatment was 5.8 months for 53 courses of AZT 5.4 months for 52 courses of THA.

[4] = Seven month follow-up of Tacrine in 26 HIV infected patients: tolerability, side effects and withdrawals; assay type: in vivo, human
Experimental: Tacrine was supplied as capsules containing 63.5 mg. Tacrine hydrochloride,monohydrate corresponding to 50 mg. base.
D0 --Inclusion Examination--Serological, hematological and clinical determinations.
as §7
Their mean age was 40.3 (range 27-65).
Mean duration of treatment was 6 months.

HIV [5] = experiment: Seven month follow-up of THA vs AZT in HIV infected patients (open study): clinical results; assay type: in vivo, human
Experimental: as §8, §9

[6] = target: polymerase of Micrococcus Lysodecticus; details: read-out: Di50 for the inhibition of the DNA polymerase; specificity test, same concentrations as for reverse transcriptase
Source text: In order to evaluate the specificity of THA, the effects on the reverse transcriptase and on a non-viral DNA polymerase, namely the polymerase of Micrococcus Lysodecticus have been compared at the same concentrations.

CEM cells = test system: CEM cells
Experimental: The CEM lines utilized for the multiplication of the virus, as well as for the inhibition studies, was provided by Service of Francoise Barre-Sinoussi, at the Institute Pasteur. The culture medium is RPMI 1640, supplemented with 10% fetal calf serum, 2% glutamine and 1% antibiotics. The cells are counted and subcultured in a culture flask every 3 or 4 days. In certain cases, the fungicide amphotericin B is added in dosages of 5 μg./ml.
The HIV 1 virus was provided from the same source and grown on CEM cells in the culture described above. The infection is created with a supernatant on the culture at a dose level of 50,000 cpm per 10^6 cells.
Healthy CEM cells were infected with HIV 1 virus at 40,000 cpm per 10^6 cells. After 7 days of infection at 37° C. an equal quantity of healthy cells are added, non-absorbed viruses removed and 5.10^5 cells/ml. and 5 ml. of medium are brought into the presence of THA.
During 5 or 6 days, the cells are counted and the supernatant of the culture is recovered for evaluation of the reverse transcriptase activity, that is to say, to determine the production of HIV 1 virus liberated by the cells. The cells are subculture into fresh medium containing the inhibitor at different concentrations.

[7] = target: T1, reverse transcriptase of the HIV 1 virus (Human immunodeficiency virus type 1 group M subtype B, UniProt P04585); experiment: Action on reverse transcriptase of the HIV 1 virus (3H thymidine triphosphate incorporation); assay type: biochemical
T1 construct: Action on Reverse Transcriptase of the HIV 1 Virus; made in house; host or cells: HIV 1 virus grown on CEM cells; virus pelleted from the culture medium and resuspended in Triton X 100 (viral lysate, not recombinant)
Experimental: For the direct study of the action of the product on the activity of the reverse transcriptase, the virus was concentrated by ultracentrifugation and the plugs of virus removed from the culture medium are resuspended in a solution containing 0.15% Triton X 100, 0.05M Tris at pH 7.8 and 20% glycerol.
These preparations, frozen at -20° C., are active for several months and served for the direct measurement of the products on enzymatic activity.
The THA is diluted as stated above and added to 40 μl of the incubation solution under a volume of 5.5 μl before the addition of 10 μl of the enzymatic preparation. Initial concentrations of the product are thus 10 times more concentrated than the final dilution in the presence of the enzyme. The controls received 5.5 μl of water.

HIV 1 virus = details: 5 μM and 10 μM THA
Experimental: The HIV 1 virus was provided from the same source and grown on CEM cells in the culture described above. The infection is created with a supernatant on the culture at a dose level of 50,000 cpm per 10^6 cells. The infection is followed by the evaluation of the activity of the reverse transcriptase which can reach a level of 10^6 cpm/ml. at the end of the culture. […]
35 μl of an incubation medium are made up of a solution of 0.07M magnesium chloride, 0.028M potassium chloride, 0.07M Tris at pH 7.8, 1.4 mM DTT and contain 5 μCi of ^3 H thymidine triphosphate, 2.5 μl of poly A are added to a unit of OD/ml. and 2.5 μl of oligo dT 12-18 to 1 unit of O.D/ml. and finally 10 μl of the plug resuspension from the ultracentrifugation or a control enzymatic preparation. […] The incorporated radioactivity which is as precipitated as an acid insoluble form was washed on Millipore HA 0.45 micron filters and counted by liquid scintillation counters. […]

Agp 24 = experiment: Seven month follow-up of THA vs AZT in HIV infected patients (open study): Agp 24; assay type: in vivo
Source text: Expressed in mean variation (%) in comparison with Do values.

[8] = reported by Byrne and Acie, British Med. J. 298 (1989) 845; cited from earlier work
[9] = during the first month of treatment
[10] = within the first month of treatment

Nc1c2c(nc3ccccc13)CCCC2 [Tacrine, 9-Amino-1,2,3,4-tetrahydroacridine]
Hepatotoxicity with purified sources of Tacrine [1]: hepatotoxicity can be avoided by utilizing purified sources of Tacrine
Antigenemia, evolution (%) in comparison with D0 (HIV [2]; D1mth): -35.3%
Antigenemia, evolution (%) in comparison with D0 (HIV [2]; D2mth): -22.1%
Antigenemia, evolution (%) in comparison with D0 (HIV [2]; D3mth): -24%
Antigenemia, evolution (%) in comparison with D0 (HIV [2]; D4mth): -17%
Antigenemia, evolution (%) in comparison with D0 (HIV [2]; D5mth): -19.4%
Antigenemia, evolution (%) in comparison with D0 (HIV [2]; D6mth): -54%
Antigenemia, evolution (%) in comparison with D0 (HIV [2]; D7mth): -51.3%
Antigenemia, evolution (%) in comparison with D0 (HIV [2]; D15): -38.5%
Opportunistic infections, cases (HIV [2]; in 4 patients): 4 cases
Kaposi sarcoma emergence (HIV [2]; number of cases, 26 patients): 2
Opportunistic infections: pneumocystosis (HIV [2]; number of cases, 26 patients): 1
Opportunistic infections: toxoplasmosis (HIV [2]; number of cases, 26 patients): 1
Opportunistic infections, patients (HIV [2]; seven month follow-up): 4/26
Mortality (HIV [2]; seven month follow-up, 26 patients): none
T4 Lymphocytes counts, evolution (%) in comparison with D0 (T4 Lymphocytes; D1mth): +16.7%
T4 Lymphocytes counts, evolution (%) in comparison with D0 (T4 Lymphocytes; D2mth): +23.9%
T4 Lymphocytes counts, evolution (%) in comparison with D0 (T4 Lymphocytes; D3mth): +19.5%
T4 Lymphocytes counts, evolution (%) in comparison with D0 (T4 Lymphocytes; D4mth): +28%
T4 Lymphocytes counts, evolution (%) in comparison with D0 (T4 Lymphocytes; D5mth): +26.6%
T4 Lymphocytes counts, evolution (%) in comparison with D0 (T4 Lymphocytes; D6mth): +8.4%
T4 Lymphocytes counts, evolution (%) in comparison with D0 (T4 Lymphocytes; D7mth): +25.6%
T4 Lymphocytes counts, evolution (%) in comparison with D0 (T4 Lymphocytes; D15): +5%
T4 /mm^3, mean variation (%) in comparison with D0 (T4; D1mth): +20.5%
T4 /mm^3, mean variation (%) in comparison with D0 (T4; D2mth): +31.7%
T4 /mm^3, mean variation (%) in comparison with D0 (T4; D3mth): +55.2%
T4 /mm^3, mean variation (%) in comparison with D0 (T4; D4mth): +74.8%
T4 /mm^3, mean variation (%) in comparison with D0 (T4; D5mth): +91.9%
T4 /mm^3, mean variation (%) in comparison with D0 (T4; D6mth): +52%
T4 /mm^3, mean variation (%) in comparison with D0 (T4; D7mth): +68.3%
Withdrawals for toxicity, number [3]: 4
Withdrawals for toxicity, percent [3]: 8%
Hematotoxicity: decrease of hematological counts ([4]; 26 patients): 0%
Hepatotoxicity: transaminase elevation ([4]; 26 patients): 0%
Nausea, cases ([4]; after the first month): 2 cases
Nausea, incidence ([4]; after the first month): 10%
Nausea, cases [4, 9]: 9 cases
Nausea, incidence [4, 9]: 35%
Withdrawals for side effects (severe nausea or neurologic), cases [4, 10]: 2 cases
Withdrawals for side effects (severe nausea or neurologic), incidence [4, 10]: 8%
Deaths, number (HIV [5]; AZT n = 52, THA n = 51): 0
Kaposi Emergence, number (HIV [5]; AZT n = 52, THA n = 51): 2
Kaposi Emergence, percent (HIV [5]; AZT n = 52, THA n = 51): 4%
Opportunistic Infections, number (HIV [5]; AZT n = 52, THA n = 51): 3
Opportunistic Infections, percent (HIV [5]; AZT n = 52, THA n = 51): 6%
Deaths, significance p in comparison with AZT courses (HIV [5]; THA vs AZT courses): < 0.05
THA versus AZT course of treatment, conclusion (HIV [5]; after 6 months of treatment): decrease in Agp24 levels, mortality and incidences of opportunistic infections
IC50 [6]: 1000 µM
Dose dependence of protective effect in CEM cultures (CEM cells): dose-dependent
Proliferation of HIV 1 infected CEM cultures (CEM cells; 1 μM THA): viral infection inhibits the proliferation
Proliferation of HIV 1 infected CEM cultures (CEM cells; 5 μM THA): the cells multiply up to the 16th. day and then decline to be destroyed like the previous cultures right up to the 28th day
Proliferation of HIV 1 infected CEM cultures (CEM cells; 10 μM THA): the cultures continue to proliferate right up to the 28th day
Protection of CEM cultures against lytic effect of HIV virus (CEM cells; at the 5 μM and more particularly at the 10 μM level): protects CEM cultures against the lytic effect of the HIV virus
IC50 ([7]; 37° C., 1 hour, read-out: 50% inhibition (Di50) of HIV 1 reverse transcriptase (converted)): 400 µM and 504 µM
Inhibition of HIV 1 reverse transcriptase in combination with HPA 23 ([7]; HPA 23 at 4 μg/ml): synergistic effect with HPA 23
Inhibiting effect on reverse transcriptase ([7]; conclusions): low
IC50 ([7]; specificity test vs DNA polymerase, same concentrations, read-out: Di50 with respect to the reverse transcriptase): 450 µM
Viral replication with respect to control cultures (HIV 1 virus): viral replication persists although significantly diminished
Agp 24, mean variation (%) in comparison with D0 (Agp 24; D1mth): -39.4%
Agp 24, mean variation (%) in comparison with D0 (Agp 24; D2mth): -28.3%
Agp 24, mean variation (%) in comparison with D0 (Agp 24; D3mth): -26.2%
Agp 24, mean variation (%) in comparison with D0 (Agp 24; D4mth): -21.5%
Agp 24, mean variation (%) in comparison with D0 (Agp 24; D5mth): -18.7%
Agp 24, mean variation (%) in comparison with D0 (Agp 24; D6mth): -39.5%
Agp 24, mean variation (%) in comparison with D0 (Agp 24; D7mth): -25%
Hepatotoxicity on long term administration [8]: long term administration of Tacrine is not practical because of hepatotoxicity

O=C(O)P(=O)(O)O [phosphonoformate]
IC50 ([7]; 50% inhibition (Di50) of HIV 1 reverse transcriptase, 37° C., 1 hour): 1 µM

Cc1cn([C@H]2C[C@H](N=[N+]=[N-])[C@@H](CO)O2)c(=O)[nH]c1=O [AZT]
T4 /mm^3, mean variation (%) in comparison with D0 (T4; D1mth): +0.5%
T4 /mm^3, mean variation (%) in comparison with D0 (T4; D2mth): +8.1%
T4 /mm^3, mean variation (%) in comparison with D0 (T4; D3mth): +18.5%
T4 /mm^3, mean variation (%) in comparison with D0 (T4; D4mth): +8.8%
T4 /mm^3, mean variation (%) in comparison with D0 (T4; D5mth): +17.2%
T4 /mm^3, mean variation (%) in comparison with D0 (T4; D6mth): -40%
T4 /mm^3, mean variation (%) in comparison with D0 (T4; D7mth): -40%
Withdrawals for toxicity, number [3]: 29
Withdrawals for toxicity, percent [3]: 49%
Deaths, number (HIV [5]; AZT n = 52, THA n = 51): 7
Deaths, percent (HIV [5]; AZT n = 52, THA n = 51): 12%
Kaposi Emergence, number (HIV [5]; AZT n = 52, THA n = 51): 3
Kaposi Emergence, percent (HIV [5]; AZT n = 52, THA n = 51): 5%
Opportunistic Infections, number (HIV [5]; AZT n = 52, THA n = 51): 27
Opportunistic Infections, percent (HIV [5]; AZT n = 52, THA n = 51): 46%
Agp 24, mean variation (%) in comparison with D0 (Agp 24; D1mth): -20.6%
Agp 24, mean variation (%) in comparison with D0 (Agp 24; D2mth): +3.4%
Agp 24, mean variation (%) in comparison with D0 (Agp 24; D3mth): -1%
Agp 24, mean variation (%) in comparison with D0 (Agp 24; D4mth): +55.6%
Agp 24, mean variation (%) in comparison with D0 (Agp 24; D5mth): +36.5%
Agp 24, mean variation (%) in comparison with D0 (Agp 24; D6mth): +173%
Agp 24, mean variation (%) in comparison with D0 (Agp 24; D7mth): +142%
